Some test systems named below: 786-0 renal; ACHN renal; BT-549 breast; CCRF-CEM leukemia; HOP-92 NSCLC; IGROV1 ovarian; K-562 leukemia; M14 melanoma; MCF7 breast; MDA-MB-231 breast; MDA-MB-435; NCI-H522 lung; OVCAR-3 ovarian; OVCAR-4 ovarian; OVCAR-5 ovarian; SF-295 CNS; SF-539 CNS; SK-MEL-5 melanoma; U251 CNS; UACC-257 melanoma.
Common to all, as to experiment: NCI tumour cell line growth inhibition, 48 h

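These data come from cells grown in 96-well plates and exposed to compound for 48 hours at five concentrations. TGI: total growth inhibition.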 A value given as a limit tells only on which side of the number the result lay.

As to `COc1cc(C2c3cc4c(cc3OC(O)C2C)OCO4)cc(OC)c1O` (stereo not given), the TGI in the test with 786-0 renal is over 100 µM; in the test with ACHN renal it was over 100 µM; with BT-549 breast, over 100 µM; in the test on CCRF-CEM leukemia, over 100 µM; in the test on HOP-92 NSCLC, over 94.3 µM; in the test with IGROV1 ovarian it was over 100 µM. Moreover, the TGI in the test on K-562 leukemia was over 100 µM; in the test on M14 melanoma, over 60 µM; in the test on MCF7 breast it was over 100 µM; in the test on MDA-MB-231 breast, 89.3 µM; with MDA-MB-435, 5.22 µM; in the test on NCI-H522 lung, 13.3 µM. The TGI is 27.4 µM in the test on OVCAR-3 ovarian; over 100 µM in the test on OVCAR-4 ovarian; over 100 µM with OVCAR-5 ovarian; 33.9 µM in the test on SF-295 CNS; 30.6 µM in the test with SF-539 CNS; over 51.6 µM with SK-MEL-5 melanoma. The TGI is 62.8 µM in the test on U251 CNS and over 100 µM with UACC-257 melanoma.
Regarding `O=c1[nH][nH]c(=S)c(=O)[nH]1`, the TGI with 786-0 renal, in the test on ACHN renal, in the test with BT-549 breast, with CCRF-CEM leukemia, in the test with HOP-92 NSCLC and in the test on IGROV1 ovarian was over 100 µM in each case. For the same compound, the TGI with K-562 leukemia, with M14 melanoma, in the test on MCF7 breast, in the test with MDA-MB-231 breast, with MDA-MB-435 and with NCI-H522 lung was over 100 µM throughout. Besides, the TGI with OVCAR-3 ovarian, with OVCAR-4 ovarian, in the test with OVCAR-5 ovarian, in the test on SF-295 CNS, with SF-539 CNS and in the test with SK-MEL-5 melanoma was over 100 µM in each case. Further, the TGI in the test on U251 CNS and in the test on UACC-257 melanoma was over 100 µM throughout.
As for `Cc1nn(C(=O)c2ccncc2)c2c1C(c1ccccc1O)SC(N)=N2` (stereo not given), the TGI with 786-0 renal, in the test on ACHN renal, with BT-549 breast, in the test with CCRF-CEM leukemia, with HOP-92 NSCLC and in the test with IGROV1 ovarian was over 10 µM each time. Besides, the TGI in the test with K-562 leukemia, with M14 melanoma, in the test with MCF7 breast, in the test on MDA-MB-231 breast, in the test with MDA-MB-435 and in the test on NCI-H522 lung was over 10 µM in each case. For the same compound, the TGI with OVCAR-3 ovarian, with OVCAR-4 ovarian, in the test with OVCAR-5 ovarian, in the test on SF-295 CNS, in the test on SF-539 CNS and in the test with SK-MEL-5 melanoma was over 10 µM each time. The TGI with U251 CNS and in the test with UACC-257 melanoma was over 10 µM each time.
For `O=C1C=Cc2c(I)sc(I)c21`, the TGI was 22.8 µM in the test with 786-0 renal; over 100 µM with ACHN renal; 41.5 µM with BT-549 breast; 18.3 µM with CCRF-CEM leukemia; 33 µM in the test with HOP-92 NSCLC; 31 µM in the test with IGROV1 ovarian. Further, the TGI with K-562 leukemia amounted to 56.8 µM; in the test with M14 melanoma, 75.8 µM; with MCF7 breast, 52.1 µM; in the test on MDA-MB-231 breast, 68.8 µM; in the test with MDA-MB-435, 62.1 µM; in the test with NCI-H522 lung, 6.97 µM. The TGI in the test on OVCAR-3 ovarian was 39.7 µM; with OVCAR-4 ovarian, 52.6 µM; with OVCAR-5 ovarian, 94.6 µM; with SF-295 CNS, over 100 µM; in the test on SF-539 CNS, 57.2 µM; in the test with SK-MEL-5 melanoma it was over 100 µM. In addition, the TGI in the test with U251 CNS is 33.3 µM; in the test on UACC-257 melanoma, 53.5 µM.
Regarding `O=C1/C(=C/c2ccc(O)cc2)CCc2ccccc21`, the TGI in the test on 786-0 renal is 39.1 µM; with ACHN renal it was 69.5 µM; in the test with BT-549 breast it was 41.4 µM; in the test on CCRF-CEM leukemia it was 10.9 µM; with HOP-92 NSCLC, 91.1 µM; in the test with IGROV1 ovarian, over 76 µM. Moreover, the TGI in the test on K-562 leukemia was 81.3 µM; with M14 melanoma, 36.6 µM; in the test with MCF7 breast it was 82.4 µM; in the test with MDA-MB-231 breast, 43.4 µM; with MDA-MB-435, 52.8 µM; with NCI-H522 lung, 5.61 µM. The TGI in the test with OVCAR-3 ovarian is 52.7 µM; with OVCAR-4 ovarian it was over 74.5 µM; in the test on OVCAR-5 ovarian, over 91 µM; in the test with SF-295 CNS it was over 63.7 µM; with SF-539 CNS, 38.4 µM; in the test with SK-MEL-5 melanoma it was 32.5 µM. The TGI in the test on U251 CNS worked out at 69.7 µM; in the test with UACC-257 melanoma, 35.8 µM.
With `Nc1nc(Cl)cc(NCC2(CO)CC(Cc3ccccc3)C2)n1` (stereo not given), the TGI with 786-0 renal was over 100 µM; in the test with ACHN renal, over 100 µM; with BT-549 breast it was over 80.5 µM; in the test with CCRF-CEM leukemia, over 100 µM; with HOP-92 NSCLC, over 88.6 µM; with IGROV1 ovarian it was over 100 µM. The TGI is over 81.6 µM in the test on K-562 leukemia; 37.1 µM with M14 melanoma; over 77.7 µM with MCF7 breast; over 100 µM in the test on MDA-MB-231 breast; over 78.1 µM with MDA-MB-435; over 100 µM in the test with NCI-H522 lung. Moreover, the TGI was over 100 µM in the test on OVCAR-3 ovarian; over 100 µM in the test on OVCAR-4 ovarian; over 100 µM in the test on OVCAR-5 ovarian; over 100 µM with SF-295 CNS; over 100 µM in the test with SF-539 CNS; over 41.9 µM with SK-MEL-5 melanoma. Further, the TGI in the test with U251 CNS was over 100 µM; in the test on UACC-257 melanoma it was over 82.3 µM.

The values above are taken from PubChem BioAssay (NCI).
